We go through one compound from PMC3867380, “Fluorescence Imaging-Based High-Throughput Screening of Fast- and Slow-Cycling LOV Proteins” (PLoS ONE, 2013).

Test [1] addresses T1, AsLOV2 (second LOV domain of Avena sativa phototropin 1) (Avena sativa, UniProt O49003, V416C/T418P/N425P/I466V/F494K).
T1 construct: gene NPH1-1; LOV2 domain with J-alpha helix, residues 404-560; N-terminal 6xHis tag; synthetic cDNA with mammalian codons in pCold I; E. coli DH5alpha; TALON purified
Kind of test: flavin fluorescence recovery imaging in E. coli colonies after blue light. Format: cell-based. As to conditions: colonies on agar, 50 °C and 25 °C; endogenous flavin; blue-light-induced reversible covalent adduct.

Test [2] has as its target T2, AsLOV2 (second LOV domain of Avena sativa phototropin 1) (Avena sativa, UniProt O49003, V416T/T418S).
T2 construct: gene NPH1-1; LOV2 domain with J-alpha helix, residues 404-560; N-terminal 6xHis tag; synthetic cDNA with mammalian codons in pCold I; E. coli DH5alpha; TALON purified
The test is described as above. Type of test: cell-based. The following applies: colonies on agar, on ice and 25 °C; endogenous flavin; blue-light-induced reversible covalent adduct.

For test [3], the target named is T3, AsLOV2 (second LOV domain of Avena sativa phototropin 1) (Avena sativa, UniProt O49003, N425Q/I427V).
T3 construct: gene NPH1-1; LOV2 domain with J-alpha helix, residues 404-560; N-terminal 6xHis tag; synthetic cDNA with mammalian codons in pCold I; E. coli DH5alpha; TALON purified
T3 sequence (O49003 entry or part of it N425Q/I427V): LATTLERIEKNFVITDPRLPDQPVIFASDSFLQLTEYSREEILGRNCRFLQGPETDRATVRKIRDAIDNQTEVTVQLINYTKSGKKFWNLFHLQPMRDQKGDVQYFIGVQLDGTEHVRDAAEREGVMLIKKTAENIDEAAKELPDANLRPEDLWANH
Described as above. Type of test: cell-based. The following applies: colonies on agar, on ice and 25 °C; endogenous flavin; blue-light-induced reversible covalent adduct.

Test [4] has as its target T4, AsLOV2 (second LOV domain of Avena sativa phototropin 1) (Avena sativa, UniProt O49003, N425S/I427L/I466M).
T4 construct: gene NPH1-1; LOV2 domain with J-alpha helix, residues 404-560; N-terminal 6xHis tag; synthetic cDNA with mammalian codons in pCold I; E. coli DH5alpha; TALON purified
Described as above. As to conditions: colonies on agar, on ice and 25 °C; endogenous flavin; blue-light-induced reversible covalent adduct. Format: cell-based.

Test [5] deals with T5, AsLOV2 (second LOV domain of Avena sativa phototropin 1) (Avena sativa, UniProt O49003).
T5 construct: gene NPH1-1; LOV2 domain with J-alpha helix, residues 404-560; N-terminal 6xHis tag; synthetic cDNA with mammalian codons in pCold I; E. coli DH5alpha; TALON purified
T5 sequence (O49003 entry or part of it): as the sequence (O49003 entry or part of it N425Q/I427V) above, with Q22N, V24I counted along it
Kind of test: absorption and fluorescence spectra of co-purified flavin; photoadduct formation and dark recovery at […] nm. Type of test: binding. As to conditions: room temperature; pH 7.5; flavin co-purified from E. coli; blue-light-induced reversible covalent adduct with Cys450.

SMILES strings stand for the structures.

T4 sequence (O49003 entry or part of it N425S/I427L/I466M): as the sequence (O49003 entry or part of it N425Q/I427V) above, with Q22S, V24L, I63M counted along it
T1 sequence (O49003 entry or part of it V416C/T418P/N425P/I466V/F494K): as the sequence (O49003 entry or part of it N425Q/I427V) above, with V13C, T15P, Q22P, V24I, I63V, F91K counted along it
T2 sequence (O49003 entry or part of it V416T/T418S): as the sequence (O49003 entry or part of it N425Q/I427V) above, with V13T, T15S, Q22N, V24I counted along it

Regarding `Cc1cc2nc3c(=O)[nH]c(=O)nc-3n(C[C@H](O)[C@H](O)[C@H](O)COP(=O)(O)O)c2cc1C` [FMN], the “flavin fluorescence recovery imaging in E. coli colonies after blue light” value was “AsLOV2-V416L and AsLOV2-V416C/T418P/N425P/I466V/F494K exhibited particularly slower thermal reversion kinetics than others” in test [1]; “V416T/T418S exhibited particularly faster thermal reversion kinetics than others” in test [2]; “substitution of V416T, N425Q/I427V, N425S/I427L/I466M and V416T/T418S exhibited particularly faster thermal reversion kinetics” in test [3]; “substitution of V416T, N425Q/I427V, N425S/I427L/I466M and V416T/T418S exhibited particularly faster thermal reversion kinetics” in test [4]. In addition, in test [5], the “absorption and fluorescence spectra of co-purified flavin; photoadduct formation” value is “AsLOV2 is a photosensory domain that binds with FMN as a cofactor”.
